Source: patent US20090317376A1, “Compositions And Methods For Lipo Modeling” (Georgetown University MEDICAL SCHOOL, priority 2005, published 2009)

Assays:
endothelial cells = experiment: Endothelial cell proliferation (mitogenic assay); type: cell-based, human
Excerpt: (§1) To mimic stress-released NPY in vitro, conditioned media from, or coculture with, neuroblastoma SKNBE cells (a model of sympathetic neurons which release 0.1 pM NPY) is used to treat endothelial cells and 3T3-L1 preadipocytes. Both cell lines express all NPYRs but lack NPY (confirmed by RT-PCR and IHC, FIG. […] 6). […] When 3T3-L1 preadipocytes are cocultured with HMVEC, there is no significant mitogenic response between treated and untreated cells.
(§2) Co-culture: For mitogenic assay and expression studies, co-culture is performed in a Costar Transwell system. Cells are plated on the 6-well plates and the inserts with 0.4 μm Polyester membranes. After they reach 30% confluence, the inserts are placed into plates with other cells. Co-culture of neuroblastomas/SCG neurons with aECs are carried out in EC media and with preadipocytes—in preadipocyte growth media. […] After 48 h, the cells are counted with a coulter counter. […]
(§3) Mitogenic assays: 3T3-L1 pre-adipocytes are allowed to grow to 30% confluency before serum-starving the cells. […] Proliferation is determined by cell counting using a coulter counter (Beckman Coulter, Miami, Fla.). […] After 24 h, cells are harvested in a 96-well harvester (Tomtec) and counted in a Betaplate Liquid Scintillation Counter (Wallac).
(§4) 1. […] After 24 h, cells were harvested in a 96-well harvester (Tomtec) and counted in a Betaplate Liquid Scintillation Counter (Wallac). […]

3T3-L1 preadipocytes = experiment: Preadipocyte proliferation (mitogenic assay); type: cell-based, murine
Excerpt: as §1, §2, §3, §4

Row | Compound | block of NPY- and neuroblastoma-conditioned media-stimulated endothelial cell proliferation (endothelial cells; BIIE0246 1 μM) | block of NPY- and neuroblastoma-conditioned media-stimulated preadipocyte proliferation (3T3-L1 preadipocytes; BIIE0246 1 μM) | endothelial cell proliferation (endothelial cells; NPY treatment of endothelial cells) | preadipocyte proliferation (3T3-L1 preadipocytes; NPY treatment of 3T3-L1 preadipocytes)
1 | N=C(N)NCCC[C@H](NC(=O)CC1(CC(=O)N2CCN(C3c4ccccc4NC(=O)c4ccccc43)CC2)CCCC1)C(=O)NCCn1c(=O)n(-c2ccccc2)n(-c2ccccc2)c1=O (stereo partly shown) [BIIE0246] | blocked | blocked | – | –
2 | neuropeptide Y [NPY] | – | – | stimulated | stimulated
